According to article PMC9024338, “Bruceine H Mediates EGFR-TKI Drug Persistence in NSCLC by Notch3-Dependent β-Catenin Activating FOXO3a Signaling” (Frontiers in Oncology, 2022):
pIC50: −log10 of the molar value.

Legend:
[1] = tested on: LO2 cells; assay: Toxicity to normal human cell line LO2 (Figure S1); type: cell-based
Experimental: (§1) Figure S1. The toxicity of Bruceine H (BH) and Bruceine D (BD) to 16HBE (A) and LO2 (B) cells was evaluated.

[2] = tested on: A549 cells; assay: cells; type: cell-based, human; conditions: A549, 48 h; read-out: IC50 (48 h)
Experimental: (§2) The human NSCLC cell lines (A549, PC-9, and PC-9/GR) and other cell lines (16HBE and LO2) were purchased from the American Type Culture Collection (ATCC, Manassas, VA, USA). […] All cell lines were cultivated at 37°C under 5% CO2.
(§3) The Cell Counting Kit-8 assays (Beyotime, Shanghai, China) were performed to assess cell viability. […] Microplate readers (Infinite F500, Tecan, Mannedorf, Switzerland) were used to measure the absorbance (A) at 450 nm. All samples were assessed in triplicate.

[3] = tested on: PC-9 cells; assay: cells; type: cell-based, human; conditions: PC-9, 48 h; read-out: IC50
Experimental: as §2, §3

[4] = tested on: 16HBE cells; assay: Toxicity to normal human cell line 16HBE (Figure S1); type: cell-based
Experimental: as §1

[5] = tested on: A549 cells; assay: Transwell migration and Matrigel invasion assays; type: cell-based, human; conditions: dose-dependent, 12 h treatment
Experimental: The Transwell insert in a 24-well plate (8 μm, Corning, NY, USA) was taken out, and a 600-μl medium containing 10% FBS was added to the bottom chamber. The A549 cells were resuspended with 10% FBS culture medium, and the diluted cell suspension (3 × 10^5/300 μl) was cultured in the top chamber and then incubated with or without Matrigel (BD BioCoat). After 12 h, the medium in the top chamber was changed to RPMI-1640 without FBS, and BD or BH with different concentrations was added ([31]). After an additional 12 h, the cells that migrated or invaded the bottom side of the polycarbonate film were fixed with methanol for 30 min and then stained for 15 min with 0.1% crystal violet (Solarbio), after which their number was assessed under a microscope (×4, Nikon).

[6] = tested on: PC-9/GR cells; assay: Apoptosis by flow cytometry (Annexin V-FITC/PI), PC-9/GR; type: cell-based, human; conditions: low-dose BH (4, 8 μM), gefitinib 25 μM, alone or combined
Experimental: After being digested with trypsin without EDTA, the cells were washed gently with culture medium and twice with cold PBS. The pellet was resuspended in 400 μl of 1× binding buffer, the resuspended cells were transferred to flow tubes, then Annexin V-FITC (5 μl) and propidium iodide (10 μl) were added, and the mixture was incubated for 15 min at room temperature in the dark. The percentage of apoptotic cells was determined by flow cytometry (Backman, CA, USA) and FlowJo V10 software.

[7] = Toxicity study in nude mice: organ index, blood routine, serum biochemistry; type: in vivo
Experimental: At the end of the experiment, blood samples were taken and analyzed by blood routine. […] The lungs and spleen were weighed and recorded. H&E staining of the heart, liver, spleen, lungs, and kidneys was performed to evaluate the cytotoxic effects of BH.

[8] = tested on: PC-9/GR xenografts; assay: PC-9/GR xenografts in BALB/c nude mice; type: in vivo; conditions: BH 2.5 mg/kg, gefitinib 25 mg/kg, alone or co-administered, intragastric
[9] = nude mice serum, mean ± SD (Table S4)
[10] = nude mice, routine blood (Table S3)

In the case of `CC1=CC(=O)[C@@H](O)[C@]2(C)[C@H]3[C@@H](O)[C@H](O)[C@@]4(C)OC[C@@]35[C@@H](C[C@@H]12)OC(=O)[C@H](O)[C@]54O` [BD, bruceine D, reference compound], the “toxicity to LO2 cells” value [1] was “higher sensitivity”, the pIC50 [2] was 4.57 and the pIC50 [3] was 4.66. For the same molecule, the “toxicity to 16HBE cells” value [4] was “higher sensitivity” and the “Transwell migration and invasion of A549” value [5] was “significant anti-invasive and antimigratory actions”.
With `COc1cc2ncnc(Nc3ccc(F)c(Cl)c3)c2cc1OCCCN1CCOCC1` [Gef, Gefitinib, reference compound] the “apoptosis of PC-9/GR cells” value [6] was “little effects”, the HDL-C [7, 9] was 0.74 ± 0.28 mmol/L and the LDL-C [7, 9] was 0.89 ± 0.45 mmol/L. For the same molecule, the TC [7, 9] was 3.49 ± 0.56 mmol/L, the TG [7, 9] was 0.74 ± 0.16 mmol/L and the GR [7, 10] was 4.593±2.519 ×10^9/L. The “GR (%)” value [7, 10] was 83.467±4.674%, the HCT [7, 10] was 50.933±6.123% and the HGB [7, 10] was 148.667 ± 17.616 g/L. For the same molecule, the LY [7, 10] was 1.017±0.533 ×10^9/L, the “LY (%)” value [7, 10] was 14.2±2.685% and the MCH [7, 10] was 15.367 ± 0.306 pg. For the same molecule, the MCHC [7, 10] was 292 ± 2.646 g/L, the MO [7, 10] was 0.213±0.274 ×10^9/L and the “MO (%)” value [7, 10] was 5.067±1.582%. The MPV [7, 10] was 6.933 ± 0.351 fL, the PCT [7, 10] was 0.653±0.110 mL/L and the PLT [7, 10] was 934.333±117.1 ×10^9/L. For the same molecule, the RBC [7, 10] was 9.687±1.162 ×10^12/L, the WBC [7, 10] was 6.483±1.439 ×10^8/L and the “tumor growth of PC-9/GR xenografts” value [8] was “slight inhibitory effect”.
